Earlier results, collected in US9040083B2, “Orally effective methylphenidate extended release powder and aqueous suspension product” (Tris Pharma, Inc., priority 2011, dated 2015).

Details: oral dosing of radiolabeled methylphenidate in humans

## COC(=O)C(c1ccccc1)C1CCCCN1 (stereo not shown) [methylphenidate]
  radioactivity recovered in urine: about 90%
